Test results as given in PubChem BioAssay (NCI).
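Values below derive from 48-hour exposures of cells grown in 96-well plates, with endpoints linearly interpolated between the two concentrations bracketing the appropriate inhibition level. At the TGI there is no net growth.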

How the values were obtained:
Experiment in all cases: growth of human tumour cells (NCI), 48 h
DU-145 prostate = system: DU-145 prostate
K-562 leukemia = system: K-562 leukemia
MDA-MB-435 = system: MDA-MB-435
SNB-19 CNS = system: SNB-19 CNS
SK-MEL-5 melanoma = system: SK-MEL-5 melanoma
786-0 renal = system: 786-0 renal
OVCAR-4 ovarian = system: OVCAR-4 ovarian
MOLT-4 leukemia = system: MOLT-4 leukemia
NCI-H226 lung = system: NCI-H226 lung
HOP-92 NSCLC = system: HOP-92 NSCLC

| SMILES | TGI (DU-145 prostate) | TGI (K-562 leukemia) | TGI (MDA-MB-435) | TGI (SNB-19 CNS) | TGI (SK-MEL-5 melanoma) | TGI (786-0 renal) | TGI (OVCAR-4 ovarian) | TGI (MOLT-4 leukemia) | TGI (NCI-H226 lung) | TGI (HOP-92 NSCLC) |
| --- | --- | --- | --- | --- | --- | --- | --- | --- | --- | --- |
| Cc1cc(NS(=O)(=O)c2ccc(NC(=O)c3ccc4nc5ccccc5c(Nc5ccc(S(=O)(=O)Nc6cc(C)on6)cc5)c4c3)cc2)no1 | > 50 µM | > 50 µM | > 50 µM | > 50 µM | > 50 µM | > 50 µM | > 50 µM | > 50 µM | > 50 µM | > 50 µM |
| CC1=NNC(=O)[C@H]2[C@H]1CCC1[C@@H]2CC[C@]2(C)[C@@H](O)CC[C@@H]12 (stereo not given in full) | > 100 µM | > 100 µM | > 100 µM | > 100 µM | > 100 µM | > 100 µM | > 100 µM | > 100 µM | > 100 µM | > 100 µM |
| CO[C@]12C[C@@H](CNC(=O)c3cc(Br)c[nH]3)O[C@H]1NC(=O)N2 | > 100 µM | > 100 µM | > 100 µM | > 100 µM | > 100 µM | > 100 µM | > 100 µM | > 100 µM | > 100 µM | > 100 µM |
| C=CCCCCCCCCC(=O)ON(Cc1ccc(O)c(OC)c1)C(=O)C(F)(F)F | > 100 µM | > 100 µM | > 100 µM | > 100 µM | > 100 µM | > 100 µM | > 100 µM | > 100 µM | > 100 µM | > 100 µM |
| O=C1c2ccccc2-n2c1nc1ccc(Cl)cc1c2=O | > 100 µM | > 100 µM | 31.1 µM | > 100 µM | > 100 µM | > 100 µM | > 100 µM | > 100 µM | > 100 µM | > 100 µM |
